Measurements: article PMC11093748, “De novo identification of CD4^+ T cell epitopes” (Nature Methods, 2024)

Tests used:
Jurkat cells, No TCR = assay: Single SABR-II co-incubation, background without TCR; assay type: cell-based, human
Method in brief: (§1)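 Single SABR-II constructs for putative cognate epitopes were expressed in CellTrace Violet-labelled NFAT–GFP Jurkat cells and co-incubated 1:1 (5 × 10^5 each) with TCR-expressing Jurkat cells for 16–20 h. GFP (with CD69 staining when indicated) was measured by flow cytometry. Wells with GFP above the no-TCR control were scored positive.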

TCR15 = assay: Single SABR-II co-incubation, NFAT-GFP Jurkat; assay type: cell-based, mouse; conditions: TCR 15, Fig 3B, 18 h
Method in brief: as §1

TCR4 = assay: Single SABR-II co-incubation, NFAT-GFP Jurkat; assay type: cell-based, mouse; conditions: TCR 4
Method in brief: as §1

TCR11 = assay: Single SABR-II co-incubation, NFAT-GFP Jurkat; assay type: cell-based, mouse; conditions: TCR 11
Method in brief: as §1

TCR37 [1] = assay: Single SABR-II co-incubation, NFAT-GFP Jurkat; assay type: cell-based, mouse; conditions: TCR 37, Fig 3B, 18 h
Method in brief: as §1

TCR24 = assay: Single SABR-II co-incubation, NFAT-GFP Jurkat; assay type: cell-based, mouse; conditions: TCR 24, Fig 3B, 18 h
Method in brief: as §1

TCR30 = assay: Single SABR-II co-incubation, NFAT-GFP Jurkat; assay type: cell-based, mouse; conditions: TCR 30
Method in brief: as §1

TCR37 [2] = assay: mIL-2 ELISA, TCR-expressing 5KC cells with SABR NFAT-GFP Jurkat cells; assay type: cell-based, mouse; conditions: murine IL-2 ELISA, 24 hr co-incubation
[3] = No TCR, Fig 3B, 18 h, biological replicate 1
[4] = No TCR, Fig 3B, 18 h, biological replicate 2
[5] = No TCR, Fig 3B, 18 h, biological replicate 3
[6] = No TCR, Fig 4B, technical replicate 1
[7] = No TCR, Fig 4B, technical replicate 2
[8] = Fig 3B, 18 h, biological replicate 1
[9] = Fig 3B, 18 h, biological replicate 2
[10] = Fig 3B, 18 h, biological replicate 3

LQTLALNAARDP
%GFP+CD69+ cells of SABR-NFAT-GFP-Jurkat cells (Jurkat cells, No TCR; No TCR, Ext. Data Fig. 6C, 18-20 hr, technical replicate 1): 3.08% | %GFP+CD69+ cells of SABR-NFAT-GFP-Jurkat cells (Jurkat cells, No TCR; No TCR, Ext. Data Fig. 6C, 18-20 hr, technical replicate 2): 3.07% | %GFP+CD69+ cells of SABR-NFAT-GFP-Jurkat cells (Jurkat cells, No TCR; [3]): 2.51% | %GFP+CD69+ cells of SABR-NFAT-GFP-Jurkat cells (Jurkat cells, No TCR; [4]): 6.93% | %GFP+CD69+ cells of SABR-NFAT-GFP-Jurkat cells (Jurkat cells, No TCR; [5]): 3.6% | %GFP+CD69+ cells of SABR-NFAT-GFP-Jurkat cells (Jurkat cells, No TCR; [6]): 1.39% | %GFP+CD69+ cells of SABR-NFAT-GFP-Jurkat cells (Jurkat cells, No TCR; [7]): 1.36% | %GFP+CD69+ cells of SABR-NFAT-GFP-Jurkat cells (Jurkat cells, No TCR; No TCR, Fig 5C, technical replicate 1): 0.73% | %GFP+CD69+ cells of SABR-NFAT-GFP-Jurkat cells (Jurkat cells, No TCR; No TCR, Fig 5C, technical replicate 2): 0.75% | %GFP+CD69+ cells of SABR-NFAT-GFP-Jurkat cells (TCR15; biological replicate 1): 39.97% | %GFP+CD69+ cells of SABR-NFAT-GFP-Jurkat cells (TCR15; biological replicate 2): 41.2% | %GFP+CD69+ cells of SABR-NFAT-GFP-Jurkat cells (TCR15; biological replicate 3): 48.23% | %GFP+CD69+ cells of SABR-NFAT-GFP-Jurkat cells (TCR4; Ext. Data Fig. 6C, 18-20 hr, technical replicate 1): 21.3% | %GFP+CD69+ cells of SABR-NFAT-GFP-Jurkat cells (TCR4; Ext. Data Fig. 6C, 18-20 hr, technical replicate 2): 21.3% | %GFP+CD69+ cells of SABR-NFAT-GFP-Jurkat cells (TCR4; [8]): 36.63% | %GFP+CD69+ cells of SABR-NFAT-GFP-Jurkat cells (TCR4; [9]): 32.63% | %GFP+CD69+ cells of SABR-NFAT-GFP-Jurkat cells (TCR4; [10]): 39.93% | %GFP+CD69+ cells of SABR-NFAT-GFP-Jurkat cells (TCR4; Fig 4B, technical replicate 1): 25.9% | %GFP+CD69+ cells of SABR-NFAT-GFP-Jurkat cells (TCR4; Fig 4B, technical replicate 2): 25.4% | %GFP+CD69+ cells of SABR-NFAT-GFP-Jurkat cells (TCR4; Fig 5C, technical replicate 1): 42.4% | %GFP+CD69+ cells of SABR-NFAT-GFP-Jurkat cells (TCR4; Fig 5C, technical replicate 2): 42.4%

SHLVEALYLVCGERG
%GFP+CD69+ cells of SABR-NFAT-GFP-Jurkat cells (Jurkat cells, No TCR; Mock TCR, Fig 4B, technical replicate 1): 3.46% | %GFP+CD69+ cells of SABR-NFAT-GFP-Jurkat cells (Jurkat cells, No TCR; Mock TCR, Fig 4B, technical replicate 2): 3.03% | %GFP+CD69+ cells of SABR-NFAT-GFP-Jurkat cells (Jurkat cells, No TCR; [3]): 2% | %GFP+CD69+ cells of SABR-NFAT-GFP-Jurkat cells (Jurkat cells, No TCR; [4]): 3.5% | %GFP+CD69+ cells of SABR-NFAT-GFP-Jurkat cells (Jurkat cells, No TCR; [5]): 1.84% | %GFP+CD69+ cells of SABR-NFAT-GFP-Jurkat cells (Jurkat cells, No TCR; [6]): 0.93% | %GFP+CD69+ cells of SABR-NFAT-GFP-Jurkat cells (Jurkat cells, No TCR; [7]): 1.04% | %GFP+CD69+ cells of SABR-NFAT-GFP-Jurkat cells (Jurkat cells, No TCR; No TCR, Fig 4B, technical replicate 3): 1.2% | %GFP+CD69+ cells of SABR-NFAT-GFP-Jurkat cells (TCR11; [8]): 7.09% | %GFP+CD69+ cells of SABR-NFAT-GFP-Jurkat cells (TCR11; [9]): 7.41% | %GFP+CD69+ cells of SABR-NFAT-GFP-Jurkat cells (TCR11; [10]): 7.96% | %GFP+CD69+ cells of SABR-NFAT-GFP-Jurkat cells (TCR11; Fig 4B, technical replicate 1): 4.58% | %GFP+CD69+ cells of SABR-NFAT-GFP-Jurkat cells (TCR11; Fig 4B, technical replicate 2): 4.07% | %GFP+CD69+ cells of SABR-NFAT-GFP-Jurkat cells (TCR37 [1]; biological replicate 1): 31.07% | %GFP+CD69+ cells of SABR-NFAT-GFP-Jurkat cells (TCR37 [1]; biological replicate 2): 38.77% | %GFP+CD69+ cells of SABR-NFAT-GFP-Jurkat cells (TCR37 [1]; biological replicate 3): 34.13% | %GFP+CD69+ cells of SABR-NFAT-GFP-Jurkat cells (TCR24; biological replicate 1): 14.87% | %GFP+CD69+ cells of SABR-NFAT-GFP-Jurkat cells (TCR24; biological replicate 2): 17.6% | %GFP+CD69+ cells of SABR-NFAT-GFP-Jurkat cells (TCR24; biological replicate 3): 16.8% | %GFP+CD69+ cells of SABR-NFAT-GFP-Jurkat cells (TCR30; [8]): 5.68% | %GFP+CD69+ cells of SABR-NFAT-GFP-Jurkat cells (TCR30; [9]): 7.14% | %GFP+CD69+ cells of SABR-NFAT-GFP-Jurkat cells (TCR30; [10]): 5.4% | %GFP+CD69+ cells of SABR-NFAT-GFP-Jurkat cells (TCR30; Fig 4B, replicate 1): 3.98% | %GFP+CD69+ cells of SABR-NFAT-GFP-Jurkat cells (TCR30; Fig 4B, replicate 2): 3.65% | %GFP+CD69+ cells of SABR-NFAT-GFP-Jurkat cells (TCR30; Fig 4B, replicate 3): 3.27% | IL-2 secretion (TCR37 [2]; technical replicate 1): 37.8351 | IL-2 secretion (TCR37 [2]; technical replicate 2): 38.2928
